Measured values as given in the supplement of paper PMC10307832.

Legend:
Test in all cases: relative viability (nuclei count vs DMSO), 5 days (fraction); higher = more cells survive
[1] = compound: NC1(c2ccc(-c3nc4ccn5c(=O)[nH]nc5c4cc3-c3ccccc3)cc2)CCC1 [MK-2206] + CCNC(=O)c1noc(-c2cc(C(C)C)c(O)cc2O)c1-c1ccc(CN2CCOCC2)cc1 [Luminespib] (partner 0.01 µM)
Outline: (§1)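 A single step with final 0.05% Triton X-100, 1% formaldehyde and 1 ug/ml Hoechst fixed the cells and stained nuclei 5 days after treatment. Lung cancer cell lines in 1536-well plates had been treated by pin tool the day after seeding with one drug alone or a fixed anchor-drug dose plus five library-drug doses (not always all listed) in √10 steps, and nuclei were counted on 4× images. Relative viability is the ratio of nuclei in treated wells to nuclei in vehicle wells, taken as the median of duplicate plates.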

[2] = compound: NC1(c2ccc(-c3nc4ccn5c(=O)[nH]nc5c4cc3-c3ccccc3)cc2)CCC1 [MK-2206] + Nc1nc2[nH]cc(CCc3ccc(C(=O)N[C@@H](CCC(=O)O)C(=O)O)cc3)c2c(=O)[nH]1 [Pemetrexed] (partner 0.2 µM)
Outline: as §1

[3] = compound: CS(=O)(=O)N1CCN(Cc2cc3nc(-c4cccc5[nH]ncc45)nc(N4CCOCC4)c3s2)CC1 [Pictilisib] + Nc1nc2[nH]cc(CCc3ccc(C(=O)N[C@@H](CCC(=O)O)C(=O)O)cc3)c2c(=O)[nH]1 [Pemetrexed] (partner 0.2 µM)
Outline: as §1

[4] = compound: CS(=O)(=O)N1CCN(Cc2cc3nc(-c4cccc5[nH]ncc45)nc(N4CCOCC4)c3s2)CC1 [Pictilisib] + CC(C)C[C@H](NC(=O)[C@H](Cc1ccccc1)NC(=O)c1cnccn1)B(O)O [Bortezomib] (partner 0.002 µM)
Outline: as §1

[5] = compound: CS(=O)(=O)N1CCN(Cc2cc3nc(-c4cccc5[nH]ncc45)nc(N4CCOCC4)c3s2)CC1 [Pictilisib] + CS(=O)(=O)CCNCc1ccc(-c2ccc3ncnc(Nc4ccc(OCc5cccc(F)c5)c(Cl)c4)c3c2)o1 [Lapatinib] (partner 2 µM)
Outline: as §1

Cell Line	relative viability ([1]; first compound 0.01 µM)	relative viability ([1]; first compound 0.03162 µM)	relative viability ([1]; first compound 0.3162 µM)	relative viability ([1]; first compound 1 µM)	relative viability ([2]; first compound 0.01 µM)	relative viability ([2]; first compound 0.3162 µM)	relative viability ([2]; first compound 1 µM)	relative viability ([3]; first compound 0.02 µM)	relative viability ([3]; first compound 0.06325 µM)	relative viability ([3]; first compound 0.6325 µM)	relative viability ([3]; first compound 2 µM)	relative viability ([4]; first compound 0.02 µM)	relative viability ([4]; first compound 0.06325 µM)	relative viability ([4]; first compound 0.6325 µM)	relative viability ([4]; first compound 2 µM)	relative viability ([5]; first compound 0.02 µM)	relative viability ([5]; first compound 0.06325 µM)	relative viability ([5]; first compound 0.6325 µM)	relative viability ([5]; first compound 2 µM)	relative viability ([2]; first compound 0.03162 µM)
SW 900	0.167	0.197	0.175	0.17	0.494	0.497	0.491	0.499	0.478	0.477	0.27									
PC-3 [JPC-3]	0.601	0.652	0.627	0.705	1.12	1.23	1.07	1.22	1.24	0.872	0.579	0.795	0.87	0.896	0.811	0.439	0.461	0.426	0.319	1.24
NCI-H1703												0.327	0.235	0.19	0.13	0.939	1.33	0.405	0.247	
EPLC-272H	0.585	0.263	0.338	0.323	0.329	0.3	0.354	0.297	0.342	0.231	0.185	0.971	1.12	0.607	0.615	1.03	1.09	0.658	0.513	0.319
NCI-H1792	0.467	0.455	0.473	0.394	0.76	0.654	0.373	0.924	0.954	0.553	0.177	0.986	0.962	0.835	0.418	0.923	0.928	0.809	0.387	0.929
NCI-H2085	0.508	0.393	0.489	0.384	0.866	0.953	0.841	0.826	0.911	0.401	0.303	1.08	1.07	0.871	0.467	0.767	0.767	0.535	0.391	1.02
LK-2	0.173	0.199	0.212	0.17	0.265	0.246	0.252	0.247	0.281	0.116	0.14					0.947	1	0.618	0.405	0.309
NCI-H1395	0.77	0.606	0.746	0.651	0.807	0.79	0.812	1.01	0.905	0.745	0.373					1.18	1.1	0.884	0.563	0.869
ABC-1	0.601	0.334	0.481	0.391								0.313	0.316	0.281	0.223	1.08	1.27	1.04	0.631	
RERF-LC-KJ	1.27	1.11	0.971	1.06	0.489	0.532	0.476	0.459	0.478	0.448	0.404	1.13	1.13	1.09	0.672	0.86	0.842	0.771	0.549	0.471
LU99A	0.284	0.251	0.268	0.203	0.174	0.186	0.203	0.198	0.179	0.19	0.164	1.36	1.18	0.757	0.514	0.98	1.04	0.574	0.372	0.152
NCI-H650	0.747	0.86	0.897	0.788	0.979	0.818	1.02	1.02	0.887	0.701	0.525	1.04	0.938	0.526	0.445	1.27	0.997	0.798	0.689	0.913
NCI-H2347	0.46	0.399	0.426	0.721	0.408	0.433	0.45	0.459	0.455	0.391	0.367	1.05	1.12	0.938	0.567	0.86	0.973	0.992	0.729	0.44
HARA	0.798	1.06	0.77	0.839	0.269	0.265	0.217	0.277	0.329	0.239	0.212	1.21	1.14	1.08	0.842	0.703	0.724	0.378	0.354	0.23
NCI-H2228	0.167	0.188	0.14	0.145	0.333	0.336	0.318	0.316	0.252	0.334	0.119	0.915	1.04	0.689	0.528	1.18	1.12	0.586	0.339	0.307
EKVX	0.991	0.872	0.801	0.69	0.372	0.393	0.356	0.371	0.354	0.366	0.221	1.13	0.937	0.66	0.394	0.212	0.215	0.186	0.136	0.386
HCC-827	0.638	0.723	0.421	0.636	0.272	0.268	0.274	0.265	0.28	0.196	0.221	1.03	1.03	1.14	1.03	0.171	0.209	0.173	0.186	0.242
